Test: Saturation concentration of CBDA and CBD
Type: physicochemical
Excerpt: A cannabinoid composition comprising a 2:1 mixture of cannabidiolic acid (CBDA) and cannabidiol (CBD) and only minor amounts of other products provides a non-limiting illustration of how a cannabinoid incipient can be utilized to increase the in actio concentration of a target cannabinoid without increasing the in situ concentration of the target cannabinoid above its saturation concentration. […] In other words, under at least some vape-device related conditions, CBD solutions comprising greater than about 50 wt. % CBD may suffer from reduced flowability within a vape device. As such, high effective CBD concentrations appear untenable based on conventional strategies. However, the experimental results set out herein also indicate that: (i) the saturation concentration of CBDA under similar circumstances is considerably higher than that of CBD; (ii) CBDA can be converted to CBD under the conditions associated with cannabinoid vapourization (e.g. the formation of a cannabinoid-based vapour or aerosol); and (iii) including CBDA in an in situ composition can increase the saturation concentration of CBD. Accordingly, as evidenced by the results set out in the present disclosure, CBDA can be utilized as an incipient—it can increase the in actio concentration of CBD without increasing the in situ concentration of CBD above its saturation concentration. […] In this respect, the present disclosure provides access to flowable cannabinoid compositions having high effective concentrations.
FIG. 1 illustrates this with a schematic phase diagram 100 for a cannabinoid composition in accordance with the present disclosure that comprises CBDA and CBD. […] In FIG. 1, the saturation concentration of CBDA and CBD are identified with reference numbers 102 and 104, respectively, and they delineate a “potentially flowable zone” 106 from a “non-flowable zone” 108. […] This is indicated schematically in FIG. 1 with arrow 110. […]

[1] = ethanol solutions under standard temperature and pressure conditions, CBD derived from an isolate

For `C=C(C)[C@@H]1CCC(C)=C[C@H]1c1c(O)cc(CCCCC)cc1O` [CBD, cannabidiol], the saturation concentration [1] was “about 50 wt. %” and the saturation concentration (under at least some vape-device related conditions) was “about 50 wt. %”.
With `C=C(C)[C@@H]1CCC(C)=C[C@H]1c1c(O)cc(CCCCC)c(C(=O)O)c1O` [CBDA, cannabidiolic acid] the saturation concentration [1] was “about 70 wt. %”.
